Tests used:
splenic lymphocytes = test: Ovalbumin-specific proliferative recall response of splenic lymphocytes after intrahepatic immunization; format: in vivo, BALB/c mice; settings: intrahepatic (portal vein) ovalbumin immunization; boosted day 7 with ovalbumin/CFA; splenic lymphocytes 14 days after boost; FIG. 1
From the text: Four groups of BALB/c mice (The Jackson Laboratory, Bar Harbor, ME) of 6-8 weeks of age consisted of Group 1 intraperitoneal administration of ovalbumin, Group 2 intrahepatic administration of ovalbumin, Group 3 intrahepatic administration of ovalbumin together with lipiodol, and Group 4 intrahepatic administration of ovalbumin together with lipiodol and Poly (I:C).
Mice in Group 1(5 mice per group) where administered one hundred micrograms of ovalbumin (grade V; Sigma Aldrich) dissolved in 0.1 mL of 0.9% saline solution intraperitoneally. The following procedures were performed for mice receiving intrahepatic immunization: Mice were anesthetized with an intraperitoneal injection of ketamin at a concentration of 0.075 mg/g and medetomidine 0.005 mg/g (Sigma Aldrich, St Louis, Mo.). A midline abdominal incision was made, and the viscera were exposed. One hundred micrograms of ovalbumin was dissolved in 0.1 mL of 0.9% saline solution was injected into the portal vein with a 30-gauge needle for mice in Group 2. Mice in Group 3 received one hundred micrograms of ovalbumin dissolved in 0.1 mL of lipiodol (Guerbet, Roissy CdG Cedex, France). […] Cells were harvested onto glass fiber filters, and the radioactivity incorporated was quantitated using a Wallac Betaplate liquid scintillation counter. Results were expressed as the mean cpm of triplicate cultures±SEM. […]

[1] = tested on: BALB/c T cells responding to C57/BL6 DC; test: Mixed lymphocyte reaction, proliferation of responding allogeneic T cells; format: cell-based, mice; settings: 3 day MLR; lipiodol-transfected C57/BL6 DC with naive BALB/c splenocytes; FIG. 9
Experimental: C57/BL6 DC after transfection were irradiated (3,000 rad) and seeded in triplicate at various concentrations in a flat-bottom 96-well plate (Coming) for use as stimulator cells. Splenic T cells from BALB/c mice were isolated by gradient centrifugation over Ficoll-Paque (Amersham Pharmacia Biotech, Quebec) and T cell nylon wool column purification, and added as responders (5×10^5 cells/well). The mixed lymphocytes were cultured at 37° C. for 72 h in 200 μl of RPMI 1640 supplemented with 10% FCS, 100 U/ml of penicillin, and 100 μg/ml of streptomycin and pulsed with 1 μCi/well of ^3H-labelled thymidine (Amersham Pharmacia Biotech) for the last 16 h of culture. Cells were harvested onto glass fiber filters, and the radioactivity incorporated was quatitated using a Wallac Betaplate liquid scintillation counter (Beckman, Fullerton, Calif.). Results were expressed as the mean counts per min of triplicate cultures±SEM. In some experiments anti-IL-10 (JES5 2A5, Pharmingen) or isotype control antibody were added for the duration of the MLR at a concentration of 5 ug/ml.
Since the specific function of DC in vivo is stimulation of T cell responses, we sought to determine whether the siRNA/lipiodol mixture had effects on inhibition of mixed lymphocyte reaction (MLR).

IL-12 p70 = IL-12 p70 production by LPS/TNF-activated bone marrow derived DC after siRNA transfection (ELISA); format: cell-based, C57/BL6 mice; settings: day-7 bone marrow derived C57/BL6 DC; LPS/TNF activation day 8; supernatants day 10; FIG. 7
Experimental: At Day 0, bone marrow cells were flushed from the femurs and tibias of C57/BL6 mice, washed and cultured in 6-well plates (Corning, N.Y.) at 4×10^6 cells/well in 4 ml of complete medium (RPMI 1640 supplemented with 2 mM L-glutamine, 100 U/ml penicillin, 100 μg of streptomycin, 50 μM 2-ME, and 10% FCS (all from Life Technologies, Ontario, Canada) supplemented with recombinant GM-CSF (10 ng/ml; PeproTech, Rocky Hill, N.J.) and recombinant mouse IL-4 (10 ng/ml; PeproTech). All cultures were incubated at 37° C. in 5% humidified CO2. Non-adherent cells were removed after 48 h of culture (Day 2) and fresh medium was added. After 7 days of culture, >90% of the cells expressed the characteristic DC-specific marker CD11c as determined by FACS. DC were washed and plated in 24-well plates at a concentration of 2×10^5 cells/well in 400 μl of serum-free RPMI 1640. Transfection with GenePorter, lipiodol, or naked siRNA was performed as described below on day 7 of culture. […]
(§1) The supernatants from recall response T cell cultures or MLR were harvested and assessed for DC cytokines (IL-12p70, IL-10) and T cell cytokines (IFN-, IL-4) by ELISA. Cytokine-specific ELISA (Endogen, Rockford, Ill.) was used for detecting cytokine concentrations in culture supernatants according to the manufacturer's instructions using a Benchmark Microplate Reader (Bio-Rad, Hercules, Calif.). […]

IFN-γ = test: KLH recall response supernatants, IFN-γ ELISA; format: in vivo, C57BL/6 mice; settings: 14 days after immunization with siRNA/lipiodol, CFA and KLH, supernatants by ELISA, FIG. 13, FIG. 16
Experimental: (§2) C57/BL6 mice were immunized intradermally at the interior side of both hind legs with 100 μl of KLH or ovalbumin (1 μg/μl) emulsified in CFA (Difco Laboratories, Detroit, Mich.) in the presence or absence of 10 nMol siRNA and 10% lipiodol. After 14 days mice were sacrificed and T cells extracted as described above.
(§3) Proliferative recall responses to KLH and ovalbumin in immunized mice were assessed by sacrificing C57/BL6 mice 14 days after immunization with antigen-loaded DC. T cells were purified from suspensions of lymph nodes using CD4+ T cell column (R&D Systems) after washing in PBS. Purified T cells were cultured in 96 well plates with irradiated syngeneic splenocytes in triplicate and mixed with serial dilutions of KLH or OVA at concentrations ranging from 0-10 ug/ml. […] Using an automated cell harvester, the cells were collected onto glass microfiber filter, and the radioactive labeling incorporation was measured by a Wallac Betaplate liquid scintillation counter.
as §1

IL-4 = test: KLH recall response supernatants, IL-4 ELISA; format: in vivo, C57BL/6 mice; settings: 14 days after immunization with siRNA/lipiodol, CFA and KLH, supernatants by ELISA, FIG. 14, FIG. 17
Experimental: as §2, §3, §1

[2] = tested on: CD4 T cells from draining lymph nodes; test: KLH proliferative recall response after immunization with siRNA/lipiodol, CFA and KLH; format: in vivo, C57BL/6 mice; settings: lipiodol/CFA composition with KLH, identical protocol to Example 10; FIG. 15
Experimental: as §2
Proliferative recall responses to KLH and ovalbumin in immunized mice were assessed by sacrificing C57/BL6 mice 14 days after immunization with antigen-loaded DC. T cells were purified from suspensions of lymph nodes using CD4+ T cell column (R&D Systems) after washing in PBS. Purified T cells were cultured in 96 well plates with irradiated syngeneic splenocytes in triplicate and mixed with serial dilutions of KLH or OVA at concentrations ranging from 0-10 ug/ml. Following a 72-h incubation, 1 μCi of [^3H]thymidine (Amersham) was added to each well for 16 h. Using an automated cell harvester, the cells were collected onto glass microfiber filter, and the radioactive labeling incorporation was measured by a Wallac Betaplate liquid scintillation counter.
Accordingly, we used the KLH recall response as an indicator. C57BL/6 mice were immunized with the IL-12 siRNA/lipiodol mixture combined with CFA and KLH. […]

[3] = listed as Lipiodol-siRNA targeting IL-10

Poly (I:C)
proliferative recall response to ovalbumin ([3H]thymidine) (splenic lymphocytes): profound stimulation

mismatched siRNA: mismatched (mixed) control sequence (AACTGCCAGATGGATGGTGAC) (SEQ ID NO: 3) (listed as DNA, chemistry not given here) [reference compound]
proliferation of responding T cells / allostimulatory ability of DC in MLR [1]: not the mismatched (mixed) control inhibited proliferation | inhibition of IL-12 production (IL-12 p70): no inhibitory effect

siRNA specific for IL-12p35: siRNA specific for IL-12p35 (AACCUGCUGAAGACCACAGAU) (SEQ ID NO: 1), Dharmacon (listed as RNA, chemistry not given here)
proliferation of responding T cells / allostimulatory ability of DC in MLR [1]: inhibited proliferation | inhibition of IL-12 production (IL-12 p70): > 30%

siRNA targeting IL-10: siRNA specific for IL-10 (AATAAGCTCCAAGAGAAAGGC) (SEQ ID NO: 2), delivered in vivo in a lipiodol/CFA composition (lipiodol/CFA formulation, further chemistry not given here)
IFN-γ production in KLH recall response (IFN-γ): enhanced | IFN-γ production in KLH recall response (IFN-γ; [3]): Increased | IL-4 production in KLH recall response (IL-4): reduced | IL-4 production in KLH recall response (IL-4; [3]): Decreased | recall proliferative response to KLH [2]: increased

Source: patent publication US20070269406A1, “Transcatheter tumor immunoembolization” (priority 2005, published 2007)
